Molecules are shown by their SMILES.

The target in the first experiment is T1, Estrogen receptor (Homo sapiens, UniProt Q92731+P03372). Description: Antagonist effect against 10 pM 17-beta-estradiol induced MCF-7 cell proliferation.
Conditions: not given
It counts as functional, cell-based.
`Oc1ccc2c(c1)sc1cc3ccc(O)cc3c(-c3ccc(C(O)CCN4CCCCC4)cc3)c12` (stereo not drawn) yielded an IC50 of 1 nM.
The same measure, in the same setting: the same measure for `Oc1ccc2c(ccc3cc4ccc(O)cc4c(-c4ccc(OCCN5CCCCC5)cc4)c32)c1`: 57 nM; for `Oc1ccc2c(c1)C(c1ccc(OCCN3CCCCC3)cc1)c1c(ccc3cc(O)ccc13)C2` (stereo not drawn): 6.6 nM.
Take `Oc1ccc2c(c1)Cc1sc3cc(O)ccc3c1C2c1ccc(C(O)CCN2CCCCC2)cc1` (stereo not drawn): the half-inhibitory concentration (IC50) amounted to 0.7 nM.
For `Oc1ccc2c3c(ccc2c1)Cc1c(O)cccc1C3c1ccc(OCCN2CCCCC2)cc1` (stereo not drawn), the concentration for half-maximal inhibition (IC50) is listed as 2.9 nM.
In turn, `Oc1ccc2c3c(sc2c1)Cc1ccccc1C3c1ccc(C(O)CCN2CCCCC2)cc1` (stereo not drawn) returned an IC50 of 17 nM.
In the case of `Oc1ccc2c3c(sc2c1)Cc1cccc(O)c1C3c1ccc(C(O)CCN2CCCCC2)cc1` (stereo not drawn), the IC50 came to 42 nM.
On the same count and under the same terms, the same measure for `Oc1ccc2c(c1)C(c1ccc(C(O)CCN3CCCCC3)cc1)c1c(sc3cc(O)ccc13)C2` (stereo not drawn): 0.9 nM; for `Oc1ccc2c3c(ccc2c1)Cc1cccc(O)c1C3c1ccc(OCCN2CCCCC2)cc1` (stereo not drawn): 68 nM.

Target in the next experiment: not listed separately
Description: Inhibition of [3H]estradiol binding to Estrogen receptor beta.
Conditions: not given
As to `Oc1ccc2c(c1)sc1cc3ccc(O)cc3c(-c3ccc(C(O)CCN4CCCCC4)cc3)c12` (stereo not drawn), affinity was put at a Ki of 0.3 nM.
On to `Oc1ccc2c(ccc3cc4ccc(O)cc4c(-c4ccc(OCCN5CCCCC5)cc4)c32)c1`, for which the Ki was found to be 0.5 nM.
As to `Oc1ccc2c(c1)C(c1ccc(OCCN3CCCCC3)cc1)c1c(ccc3cc(O)ccc13)C2` (stereo not drawn), the Ki amounted to 3.2 nM. Against the preceding molecule, the Ki is about 6.4-fold higher.
Same read-out and setting: to `Oc1ccc2c(c1)Cc1sc3cc(O)ccc3c1C2c1ccc(C(O)CCN2CCCCC2)cc1` (stereo not drawn) belongs 1.3 nM.
With `Oc1ccc2c3c(ccc2c1)Cc1c(O)cccc1C3c1ccc(OCCN2CCCCC2)cc1` (stereo not drawn), the Ki was 5.4 nM.
With `Oc1ccc2c3c(sc2c1)Cc1ccccc1C3c1ccc(C(O)CCN2CCCCC2)cc1` (stereo not drawn), the Ki is 5.3 nM. The Ki values of the last two molecules are within 1.5-fold of each other.
Consider `Oc1ccc2c3c(sc2c1)Cc1cccc(O)c1C3c1ccc(C(O)CCN2CCCCC2)cc1` (stereo not drawn), for which affinity was put at a Ki of 14 nM.
Take `Oc1ccc2c(c1)C(c1ccc(C(O)CCN3CCCCC3)cc1)c1c(sc3cc(O)ccc13)C2` (stereo not drawn): the Ki was 0.9 nM.
Turning to `CCC(=C(c1ccc(O)cc1)c1ccc(OCCN(C)C)cc1)c1ccccc1`, the Ki came to 0.5 nM.
`Oc1ccc2c3c(ccc2c1)Cc1cccc(O)c1C3c1ccc(OCCN2CCCCC2)cc1` (stereo not drawn): affinity was put at a Ki of 40 nM.
As for `Oc1ccc2c(c1)Cc1ccc3cc(O)ccc3c1C2c1ccc(OCCN2CCCCC2)cc1` (single isomer, unassigned), the inhibition constant (Ki) was 4.4 nM. Against the preceding molecule, the Ki is about 9.1-fold lower.
`Oc1ccc2c(c1)Cc1ccc3cc(O)ccc3c1C2c1ccc(OCCN2CCCCC2)cc1` (stereo in doubt; form 1) returned a Ki of 5.5 nM. This Ki and that of the molecule before are within 1.5-fold of each other.
`Oc1ccc2c(c1)Cc1ccc3cc(O)ccc3c1C2c1ccc(OCCN2CCCCC2)cc1` (stereo in doubt; form 2) had a Ki of 4.2 nM.

Target in another experiment: not listed separately
Put plainly: Inhibition of [3H]estradiol binding to Estrogen receptor alpha.
Conditions: not given
`Oc1ccc2c(c1)sc1cc3ccc(O)cc3c(-c3ccc(C(O)CCN4CCCCC4)cc3)c12` (stereo not drawn) came in with a Ki of 0.4 nM.
`Oc1ccc2c(ccc3cc4ccc(O)cc4c(-c4ccc(OCCN5CCCCC5)cc4)c32)c1` showed a Ki of 0.8 nM. Against the preceding molecule, the Ki is about 2-fold higher.
Turning to `Oc1ccc2c(c1)C(c1ccc(OCCN3CCCCC3)cc1)c1c(ccc3cc(O)ccc13)C2` (stereo not drawn), affinity was put at a Ki of 1 nM. The Ki values of the last two molecules are within 1.5-fold of each other.
`Oc1ccc2c(c1)Cc1sc3cc(O)ccc3c1C2c1ccc(C(O)CCN2CCCCC2)cc1` (stereo not drawn) returned a Ki of 0.7 nM. The Ki values of the last two molecules are within 1.5-fold of each other.
In turn, `Oc1ccc2c3c(ccc2c1)Cc1c(O)cccc1C3c1ccc(OCCN2CCCCC2)cc1` (stereo not drawn) had a Ki of 1.1 nM.
`Oc1ccc2c3c(sc2c1)Cc1ccccc1C3c1ccc(C(O)CCN2CCCCC2)cc1` (stereo not drawn) came in with a Ki of 2.4 nM.
Still for that read-out and setting: the same measure for `Oc1ccc2c3c(sc2c1)Cc1cccc(O)c1C3c1ccc(C(O)CCN2CCCCC2)cc1` (stereo not drawn): 2.6 nM; for `Oc1ccc2c(c1)C(c1ccc(C(O)CCN3CCCCC3)cc1)c1c(sc3cc(O)ccc13)C2` (stereo not drawn): 0.5 nM.
`CCC(=C(c1ccc(O)cc1)c1ccc(OCCN(C)C)cc1)c1ccccc1` came in with an inhibitory constant (Ki) of 0.5 nM.
On the same count and under the same terms, to `Oc1ccc2c3c(ccc2c1)Cc1cccc(O)c1C3c1ccc(OCCN2CCCCC2)cc1` (stereo not drawn) belongs 7.7 nM.
On the same count and under the same terms, the same measure for `Oc1ccc2c(c1)Cc1ccc3cc(O)ccc3c1C2c1ccc(OCCN2CCCCC2)cc1` (single isomer, unassigned): 0.7 nM.
Molecule `Oc1ccc2c(c1)Cc1ccc3cc(O)ccc3c1C2c1ccc(OCCN2CCCCC2)cc1` (stereo in doubt; form 1) showed a Ki of 1.1 nM.
Still for that read-out and setting: the same measure for `Oc1ccc2c(c1)Cc1ccc3cc(O)ccc3c1C2c1ccc(OCCN2CCCCC2)cc1` (stereo in doubt; form 2): 0.8 nM.

In the next experiment the target is T1, Estrogen receptor. It counts as functional, cell-based. Particulars: ishikawa.
In turn, `Oc1ccc2c(c1)sc1cc3ccc(O)cc3c(-c3ccc(C(O)CCN4CCCCC4)cc3)c12` (stereo not drawn) returned an IC50 of 690 nM.
With `Oc1ccc2c(ccc3cc4ccc(O)cc4c(-c4ccc(OCCN5CCCCC5)cc4)c32)c1`, the IC50 was 820 nM.
On the same count and under the same terms, the same measure for `Oc1ccc2c(c1)C(c1ccc(OCCN3CCCCC3)cc1)c1c(ccc3cc(O)ccc13)C2` (stereo not drawn): 130 nM.
`Oc1ccc2c(c1)Cc1sc3cc(O)ccc3c1C2c1ccc(C(O)CCN2CCCCC2)cc1` (stereo not drawn) yielded an IC50 of 45 nM. This IC50 is about 2.9-fold lower than that of the molecule before.
Still for that read-out and setting: the same measure for `Oc1ccc2c3c(ccc2c1)Cc1c(O)cccc1C3c1ccc(OCCN2CCCCC2)cc1` (stereo not drawn): 50 nM.
As to `Oc1ccc2c3c(sc2c1)Cc1ccccc1C3c1ccc(C(O)CCN2CCCCC2)cc1` (stereo not drawn), the IC50 came out at 710 nM. This IC50 lies about 14-fold higher than the previous one.
For the molecule `Oc1ccc2c3c(sc2c1)Cc1cccc(O)c1C3c1ccc(C(O)CCN2CCCCC2)cc1` (stereo not drawn), the IC50 is reported as 680 nM. The IC50 values of the last two molecules are within 1.5-fold of each other.
Molecule `Oc1ccc2c(c1)C(c1ccc(C(O)CCN3CCCCC3)cc1)c1c(sc3cc(O)ccc13)C2` (stereo not drawn) displayed an IC50 of 53 nM.
In turn, `Oc1ccc2c3c(ccc2c1)Cc1cccc(O)c1C3c1ccc(OCCN2CCCCC2)cc1` (stereo not drawn) displayed an IC50 of 580 nM.

The target in the next experiment is T1, Estrogen receptor. Put plainly: Agonist activity as alkaline phosphatase induction in Ishikawa endometrial cells compared to E2. It counts as functional, cell-based.
Conditions: not given
Regarding `Oc1ccc2c(c1)sc1cc3ccc(O)cc3c(-c3ccc(C(O)CCN4CCCCC4)cc3)c12` (stereo not drawn), the EC50 was determined as 1.6 nM.
The same measure, in the same setting: the same measure for `Oc1ccc2c(ccc3cc4ccc(O)cc4c(-c4ccc(OCCN5CCCCC5)cc4)c32)c1`: 10 nM; for `Oc1ccc2c(c1)C(c1ccc(OCCN3CCCCC3)cc1)c1c(ccc3cc(O)ccc13)C2` (stereo not drawn): 2.6 nM; for `Oc1ccc2c(c1)Cc1sc3cc(O)ccc3c1C2c1ccc(C(O)CCN2CCCCC2)cc1` (stereo not drawn): 0.4 nM.
`Oc1ccc2c3c(ccc2c1)Cc1c(O)cccc1C3c1ccc(OCCN2CCCCC2)cc1` (stereo not drawn) came in with a 50% effective concentration (EC50) of 0.7 nM.
Still for that read-out and setting: the same measure for `Oc1ccc2c3c(sc2c1)Cc1ccccc1C3c1ccc(C(O)CCN2CCCCC2)cc1` (stereo not drawn): 3.5 nM.
`Oc1ccc2c3c(sc2c1)Cc1cccc(O)c1C3c1ccc(C(O)CCN2CCCCC2)cc1` (stereo not drawn) showed an EC50 of 3.1 nM.
`Oc1ccc2c(c1)C(c1ccc(C(O)CCN3CCCCC3)cc1)c1c(sc3cc(O)ccc13)C2` (stereo not drawn) gave an EC50 of 0.9 nM. Against the preceding molecule, the EC50 is about 3.4-fold lower.
Molecule `Oc1ccc2c3c(ccc2c1)Cc1cccc(O)c1C3c1ccc(OCCN2CCCCC2)cc1` (stereo not drawn) had an EC50 of 28 nM.

Source of the values: ChEMBL document CHEMBL1137044, “Benzothiophene and naphthalene derived constrained SERMs” (Bioorg Med Chem Lett, 2004).
